# Measurements taken from ChEMBL document CHEMBL1154288, “The discovery and unique pharmacological profile of RO4938581 and RO4882224 as potent and selective GABAA alpha5 inverse agonists for the treatment of cognitive dysfunction” (Bioorg Med Chem Lett, 2009).
# Experiments:
# [1] = target: T1, GABA-A receptor; alpha-5/beta-3/gamma-2 (Homo sapiens, UniProt P18507+P28472+P31644); test: Displacement of [3H]Flumazenil from cloned human GABA alpha-5-beta-3-gamma-2 receptor expressed in HEK293 cells; type: cell-based
# T1 sequence (P18507 whole entry): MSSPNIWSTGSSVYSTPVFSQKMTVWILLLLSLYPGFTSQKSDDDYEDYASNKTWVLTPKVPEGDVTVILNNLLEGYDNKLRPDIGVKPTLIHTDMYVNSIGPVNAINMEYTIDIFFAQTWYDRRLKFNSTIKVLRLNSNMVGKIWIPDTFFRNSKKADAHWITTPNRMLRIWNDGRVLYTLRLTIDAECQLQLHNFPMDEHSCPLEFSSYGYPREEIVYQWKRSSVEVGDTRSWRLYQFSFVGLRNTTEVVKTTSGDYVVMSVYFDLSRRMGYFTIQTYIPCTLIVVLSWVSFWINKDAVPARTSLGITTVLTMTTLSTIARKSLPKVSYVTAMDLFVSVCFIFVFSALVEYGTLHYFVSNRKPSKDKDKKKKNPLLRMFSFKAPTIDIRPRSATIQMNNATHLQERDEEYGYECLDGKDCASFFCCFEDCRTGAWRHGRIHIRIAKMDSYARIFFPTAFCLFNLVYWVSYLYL
# T1 sequence (P28472 whole entry): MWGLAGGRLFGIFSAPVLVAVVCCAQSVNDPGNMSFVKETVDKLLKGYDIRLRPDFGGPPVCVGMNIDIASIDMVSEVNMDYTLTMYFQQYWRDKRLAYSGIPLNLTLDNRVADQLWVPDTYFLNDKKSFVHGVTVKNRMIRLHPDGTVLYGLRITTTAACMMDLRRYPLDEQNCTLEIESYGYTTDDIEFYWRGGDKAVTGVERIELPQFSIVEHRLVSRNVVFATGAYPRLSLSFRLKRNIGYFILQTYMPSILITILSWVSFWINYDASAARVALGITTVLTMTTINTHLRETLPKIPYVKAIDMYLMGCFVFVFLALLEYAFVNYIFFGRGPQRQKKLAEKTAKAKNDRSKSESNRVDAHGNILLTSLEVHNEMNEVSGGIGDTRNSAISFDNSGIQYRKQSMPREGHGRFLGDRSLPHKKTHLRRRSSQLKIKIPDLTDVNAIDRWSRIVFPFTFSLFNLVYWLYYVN
# T1 sequence (P31644 whole entry): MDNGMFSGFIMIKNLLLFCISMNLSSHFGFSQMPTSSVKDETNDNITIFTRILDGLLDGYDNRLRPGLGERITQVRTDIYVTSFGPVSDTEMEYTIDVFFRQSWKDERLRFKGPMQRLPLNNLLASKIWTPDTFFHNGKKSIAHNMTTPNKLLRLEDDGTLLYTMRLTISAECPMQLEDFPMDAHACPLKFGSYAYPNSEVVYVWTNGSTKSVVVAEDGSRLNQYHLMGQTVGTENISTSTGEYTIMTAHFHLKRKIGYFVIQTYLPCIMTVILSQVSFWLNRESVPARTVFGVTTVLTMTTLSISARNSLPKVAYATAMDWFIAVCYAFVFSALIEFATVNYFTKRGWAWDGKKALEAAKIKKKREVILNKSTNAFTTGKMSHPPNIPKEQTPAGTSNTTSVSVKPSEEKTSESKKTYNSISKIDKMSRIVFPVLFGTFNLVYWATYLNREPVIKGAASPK
# HEK293 [2] = test: Selectivity ratio of Ki for cloned human GABA alpha-1-beta-3-gamma-2 receptor expressed in HEK293 cells to Ki for cloned human GABA alpha-5-beta-3-gamma-2 receptor expressed in HEK293 cells; type: cell-based
# HEK293 [3] = test: Selectivity ratio of Ki for cloned human GABA alpha-2-beta-3-gamma-2 receptor expressed in HEK293 cells to Ki for cloned human GABA alpha-5-beta-3-gamma-2 receptor expressed in HEK293 cells; type: cell-based
# HEK293 [4] = test: Selectivity ratio of Ki for cloned human GABA alpha-3-beta-3-gamma-2 receptor expressed in HEK293 cells to Ki for cloned human GABA alpha-5-beta-3-gamma-2 receptor expressed in HEK293 cells; type: cell-based
# [5] = target: GABA A receptor alpha-5/beta-3/gamma-2 (Rattus norvegicus) (UniProt P18508+P19969+P63079); test: Inverse agonist activity at rat GABA alpha-5-beta-3-gamma-2 receptor expressed in HEK293 cells by electrophysiology assay relative to GABA; type: functional, cell-based
# [6] = target: GABA-A receptor; alpha-5/beta-3/gamma-2 (Homo sapiens) (UniProt P18507+P28472+P31644); test: Inverse agonist activity at human GABA alpha-5-beta-3-gamma-2 receptor expressed in Xenopus laevis oocyts by electrophysiology assay relative to GABA; type: functional
# [7] = Selectivity ratio of Ki for cloned human GABA alpha-1-beta-3-gamma-2 receptor expressed in insect SF9 cells to Ki for cloned human GABA alpha-5-beta-3-gamma-2 receptor expressed in insect SF9 cells
# [8] = Selectivity ratio of Ki for cloned human GABA alpha-2-beta-3-gamma-2 receptor expressed in insect SF9 cells to Ki for cloned human GABA alpha-5-beta-3-gamma-2 receptor expressed in insect SF9 cells
# [9] = Selectivity ratio of Ki for cloned human GABA alpha-3-beta-3-gamma-2 receptor expressed in insect SF9 cells to Ki for cloned human GABA alpha-5-beta-3-gamma-2 receptor expressed in insect SF9 cells
# [10] = target: GABA-A receptor; alpha-1/beta-2/gamma-2 (Rattus norvegicus) (UniProt P18508+P62813+P63138); test: Inverse agonist activity at rat GABA alpha-1-beta-3-gamma-2 receptor expressed in HEK293 cells by electrophysiology assay relative to GABA; type: functional, cell-based
# [11] = Solubility by lypophlisation solubility assay; type: physicochemical
# [12] = Lipophilicity, log D at pH 7.4; type: physicochemical; details: buffer
# [13] = Permeability by PAMPA; type: ADME; details: read-out: permeability
# [14] = Half life in rat; type: ADME, organism-based; details: in vivo
# [15] = Clearance in rat; type: ADME, organism-based; details: in vivo
# [16] = Volume of distribution at steady state in rat; type: ADME, organism-based; details: in vivo, read-out: Vdss
# [17] = Oral bioavailability in rat; type: ADME, organism-based; details: in vivo
SMILES,Ki [1],Ratio Ki (HEK293 [2]),Ratio Ki (HEK293 [3]),Ratio Ki (HEK293 [4]),Efficacy [5],Efficacy [6],also measured
Cc1nc(-c2ncn3c2Cn2ncnc2-c2cc(F)ccc2-3)no1,0.2 nM,3,5,3,-12%,–,–
CCCc1ncn2c1Cn1ncnc1-c1cc(Cl)ccc1-2,1.6 nM,3,5,3,-35%,–,–
C#CCNC(=O)c1ncn2c1Cn1ncnc1-c1cc(F)ccc1-2,68 nM,4,1,1,-35%,–,–
Cc1ncn2c1Cn1ncnc1-c1cc(OC(F)F)ccc1-2,1.8 nM,58,53,33,–,-43%,–
Clc1ncn2c1Cn1ncnc1-c1cc(C3CC3)ccc1-2,1.2 nM,23,15,16,-47%,–,–
Cc1ncn2c1Cn1ncnc1-c1cccc(F)c1-2,64 nM,12,12,5,–,-50%,–
O=C(Nc1ccc2c(c1)-c1ncnn1Cc1c(Cl)ncn1-2)C1CC1,16 nM,2,6,5,–,-48%,–
FC(F)c1ccc2c(c1)-c1ncnn1Cc1c(Cl)ncn1-2,1.1 nM,19,36,15,-42%,–,–
N#Cc1ccc2c(c1)-c1ncnn1Cc1c(Cl)ncn1-2,2.4 nM,15,16,5,-27%,–,–
Brc1ccc2c(c1)-c1ncnn1Cc1c(-c3cccs3)ncn1-2,4 nM,27,22,16,–,-10%,–
Clc1ccc2c(c1)-c1ncnn1Cc1c(C3CC3)ncn1-2,9.4 nM,6,7,5,-21%,–,–
Cc1ncn2c1Cn1ncnc1-c1cc(C(F)F)ccc1-2,2.2 nM,29,62,30,–,-45%,–
c1ccc2c(c1)-c1ncnn1Cc1cncn1-2,–,–,–,–,-37%,–,Ratio Ki [7]: 15; Ratio Ki [8]: 0.05; Ratio Ki [9]: 0.06
Cc1ncn2c1Cn1ncnc1-c1ccccc1-2,2.6 nM,16,6,4,-44%,–,–
CS(=O)(=O)Nc1ccc2c(c1)-c1ncnn1Cc1c(Cl)ncn1-2,54 nM,7,5,5,–,-36%,–
Cc1cccc(-c2ncn3c2Cn2ncnc2-c2cc(Cl)ccc2-3)n1,31 nM,11,11,8,-12%,–,–
Cc1ncn2c1Cn1ncnc1-c1cc(C(F)(F)F)ccc1-2,18 nM,29,78,29,–,-32%,–

SMILES,Ki [1],Ratio Ki (HEK293 [2]),Ratio Ki (HEK293 [3]),Ratio Ki (HEK293 [4]),Efficacy [5],Efficacy [6],also measured
Cc1ccc2c(c1)-c1ncnn1Cc1c(Cl)ncn1-2,1.8 nM,11,23,12,-37%,–,–
Cc1ccc2c(c1)-c1ncnn1Cc1c(C)ncn1-2,9.2 nM,11,34,23,–,-37%,–
Clc1ncn2c1Cn1ncnc1-c1cc(-c3ccccc3)ccc1-2,6.3 nM,4,5,8,8%,–,–
CCC(F)(F)c1ncn2c1Cn1ncnc1-c1cc(F)ccc1-2,3.2 nM,5,3,2,-27%,–,–
Clc1ncn2c1Cn1ncnc1-c1ccccc1-2,0.3 nM,13,5,2,-41%,–,–
Cc1ncn2c1Cn1ncnc1-c1cc(OC(F)(F)F)ccc1-2,50 nM,10,29,24,-41%,–,–
Clc1ncn2c1Cn1ncnc1-c1cc(NC3CC3)ccc1-2,2.2 nM,10,43,36,-37%,–,–
CCS(=O)(=O)c1ncn2c1Cn1ncnc1-c1cc(Cl)ccc1-2,215 nM,4,> 15,4,-23%,–,–
Cc1ncn2c1Cn1ncnc1-c1cc(Br)ccc1-2,6.2 nM,22,30,21,-42%,–,Efficacy [10]: -9%; solubility [11]: 78 µg/mL; logD [12]: 1.6; Papp [13]: 7.6 ×10⁻⁶ cm/s; half-life [14]: 7.7 h; clearance [15]: 0.6 mL/min/kg; Vd [16]: 0.4 L/kg; bioavailability [17]: 80%
Cc1ncn2c1Cn1ncnc1-c1cc(F)ccc1-2,3 nM,6,3,4,-38%,–,–
Clc1ncn2c1Cn1ncnc1-c1cc(-n3ccnc3)ccc1-2,13 nM,1,2,1,-7%,–,–
Cn1nccc1-c1ncn2c1Cn1ncnc1-c1cc(Br)ccc1-2,9.7 nM,26,35,22,–,-33%,–
Cc1ncn2c1Cn1ncnc1-c1cc(I)ccc1-2,4.4 nM,42,60,29,–,-57%,–
Cc1ncn2c1Cn1ncnc1-c1c(Cl)cccc1-2,1.2 nM,0.6,2,1,–,-45%,–
COc1ccc2c(c1)-c1ncnn1Cc1c(C)ncn1-2,7.7 nM,11,31,18,–,-45%,–
Cc1ncn2c1Cn1ncnc1-c1c(F)cccc1-2,1 nM,5,13,6,–,-42%,–
CC(=O)Nc1ccc2c(c1)-c1ncnn1Cc1c(Cl)ncn1-2,2.9 nM,14,19,10,-34%,–,–
